In patent US8710068B2, “Method of treating cancer using a survivin inhibitor” (The Trustees Of The University Of Pennsylvania, priority 2009, dated 2014):

How the values were obtained:
HeLa cells [1] = experiment: Trypan blue exclusion cell death, synchronized vs unsynchronized HeLa; format: cell-based, human
Description: FIG. 12 illustrates S12 induction of caspase activation in HeLa cells. (A) HeLa cells were incubated with DMSO (control), S12, Taxol, nocodazole (Noco), or etoposide (Etop) for 12 hours. The cell lysates were analyzed by Western blot using the anti-PARP antibody (top panel), the anti-α-tubulin antibody (middle panel), or the anti-Survivin antibody (bottom panel). (B) S12 causes cell death in a cell cycle dependent manner. HeLa cells, either unsynchronized or synchronized by thymidine treatment were incubated either with S12 or DMSO. Cell death was quantitated by trypan blue exclusion assay.
We wanted to determine if the Survivin-targeting compounds induce cell death during mitosis but could not affect the phenotype or influence in other stages of the cell cycle. To this end, we blocked HeLa cells in the S phase by thymidine treatment and examined whether the cells were susceptible to cell death induced by S12. […] Thus, the current data support the notion that S12 induced death of cells is a consequence of mitotic arrest rather than general cytotoxicity and indicate a unique cell cycle specific functionality of Survivin in this process.

AsPC1 tumor xenograft = experiment: Immunohistochemistry of tumor xenograft (Ki67, TUNEL); format: in vivo, athymic mice
Text: FIG. 14 illustrates the immunohistochemistry analysis of tumor xenograft following treatment with S12 or PBS.
We performed immunohistochemistry studies to analyze the cellular effects of S12 treatment on the tumors. […] In addition, we examined apoptosis using the TUNEL assay.

[2] = Toxicity observation in xenograft mice; format: in vivo; conditions: 5 to 50 mg/kg, xenograft studies
HeLa cells [3] = experiment: Immunofluorescence microscopy of mitosis and spindle formation, HeLa; format: cell-based, human
Description: FIG. 8 illustrates the effect of S2 on mitotic spindle formation. HeLa cells were treated with S2 or DMSO for 15 hours. The cells were then fixed and subjected to immunostaining using the anti-β-Tubulin (green) and the anti-Survivin (red). Representative fluorescent microscopy images are shown. Note that short microtubule bundles form in S2-treated cells.
FIG. 9 illustrates the effect of S12 on mitosis. (A) HeLa cells were treated with S12, S2 or DMSO for 15 hours. The cells were then fixed and subjected to immunostaining using antibodies specific for Aurora B (green) and Survivin (red). DNA was stained with DAPI. Chromosome misalignment is indicated with the arrowheads. (B) Percentage of S12-treated cells in mitosis, in metaphase, in anaphase/telophase, or with misaligned chromosomes. (C) Percentage of S2-treated cells in mitosis, in metaphase, in anaphase/telophase, or with misaligned chromosomes. (D) HeLa cells were treated with S12 (10 μg/ml) or DMSO (control) for 15 hours. Cells were examined by PI staining of DNA content by FACS analysis.
FIG. 17 illustrates (A) FACS analysis of DNA content of HeLa cells treated with SBDO3. Note the accumulation of cells at the G2/M stage. Cell death was also observed (sub-G1 population); (B) Immuno-fluorescence microscopy analysis of cell treated with SBDO3. Note that the microtubule bundles of the mitotic spindle are disorganized. The chromosomes are not aligned properly and cells cannot go through metaphase.
FIG. 19 illustrates immunofluorescence studies of Survivin localization. (A) Untreated HeLa cells were subjected to immunostaining using a monoclonal anti-beta-Tubulin antibody (green) or a polyclonal anti-Survivin antibody (red). Images of cells at various stages of mitosis are shown. (B) HeLa cells were treated with S2 for 6 hours. Cells were immunostained with anti-beta-Tubulin antibody (green) or a polyclonal anti-survivin antibody (red). Note that localization of Survivin to the midbody was not affected by S2.
The effect of S2 and its analogs on the progression of cell cycle was examined by immunofluorescence microscopy. HeLa cells were plated on coverglass and treated with the Survivin-targeting compound S2 (10 μg/ml) or with the solvent DMSO alone for 15 hours. Cells were stained with the anti-β-Tubulin antibody (green) and anti-Survivin antibody (red). S2 can block cell division at the early stage of mitosis (FIG. 8). […] The microtubules in this case are very short, with one end attached to the centrosome and the other end to the kinetochore of the chromosomes (FIG. 8).
We extended the immunofluorescence studies to define the cell stage in the cells that were arrested by S2 or its analogs. Cells were also stained with anti-Aurora B antibody or anti-Survivin antibody in order to determine whether the localization of Survivin or Aurora B proteins are changed by these small molecules. Upon S2 or S12 treatment, we observed that cells accumulate in a stage with condensed chromosomes but without proper alignment of chromosomes on the mitotic plate (FIG. 9). The percentage of cells that progress to metaphase or beyond was reduced by S2 or S12 treatment (FIG. 9). […] Moreover, localization of Survivin to the midbody was also not affected.
Effects of the Survivin-targeting compound S12 on cell cycle progression was examined by immunofluorescence microscopy. HeLa cells were plated on coverglass and treated with S12 (40 μM) or with the solvent DMSO alone for 15 hours. […]

[4] = system: AsPC1 pancreatic cancer cells; experiment: MTT tumor cell proliferation assay, AsPC1; format: cell-based, human; conditions: AsPC1, 5, 10, 20, or 50 μg/ml for 48 hours
Description: FIG. 3 illustrates the effect of S2 and its analogs on tumor cell proliferation. Cells were treated with DMSO or Survivin targeting molecules at the indicated concentration for 48 hours. The percentage of viable cells was evaluated by MTT assay. (A) AsPC1; (B) HeLa; (C) SKBR3; (D) DAOY.
FIG. 18 illustrates the effect of SBDO3, SN2, or SDC1 on tumor cell proliferation. (A) AsPC1 cells were treated with DMSO or the Survivin targeting molecules SBDO3 or SN2 at the indicated concentration for 48 hours. (B) SKBR3 cells were treated with DMSO or SDC1 for 48 hours. The percentage of viable cells was evaluated by MTT assay.
S2 and its analogs (S10, S11, S12, and S13) were tested for the ability to inhibit tumor cell proliferation by MTT assay. The AsPC1 pancreatic cancer cells were treated with DMSO, a control molecule SC2, or the Survivin-targeting compounds at the concentration of 5, 10, 20, or 50 μg/ml for 48 hours. The number of viable cells was evaluated by MTT.
SBDO3, SN2 and SDC1 were tested for the ability to inhibit tumor cell proliferation by MTT assay. The AsPC1 pancreatic cancer cells were treated with DMSO or the Survivin-targeting compounds at the concentration of 5, 10, 20, or 50 μg/ml for 48 hours. The number of viable cells was evaluated by MTT.

O=C(CC1(O)C(=O)Nc2ccc(Br)cc21)c1ccc2c(c1)OCO2 (centres unmarked) [S12]
cell death of S phase-arrested cells (HeLa cells [1]; HeLa blocked in S phase by thymidine): insensitive
cell death of unsynchronized cells (HeLa cells [1]; unsynchronized HeLa): underwent apoptosis
proliferation of tumor cells (Ki67) (AsPC1 tumor xenograft; immunohistochemistry of tumor xenograft): drastically reduced proliferation of tumor cells
apoptosis in the tumors (TUNEL assay) (AsPC1 tumor xenograft; tumor xenograft): increased the levels of apoptosis
toxic effects to the mice [2]: no overtly toxic effects
percentage of cells that progress to metaphase or beyond (HeLa cells [3]; 15 hours): reduced
formation of the mitotic spindle (HeLa cells [3]; 15 hours, immunofluorescence): can cause defects in formation of the mitotic spindle
localization of Survivin or Aurora B to the kinetochore (HeLa cells [3]; immunofluorescence): did not alter
localization of Survivin to the midbody (HeLa cells [3]; immunofluorescence): not affected
mitotic stage at which cells accumulate (HeLa cells [3]; immunofluorescence): arrested by S12 in an early stage of mitosis
inhibition of cell proliferation / cell viability [4]: can inhibit cell proliferation and reduce cell viability in a dose-dependent manner
